Entries after “also recorded” stand apart in the source; their conditions may differ.
Assays:
U87 cells = assay: U87 GBM cell growth in vitro, viable cells counted; type: cell-based; details: Homo sapiens, U-87 MG, read-out: IC50 inhibition of GBM cell growth
Experimental: FIG. 6: Effect of Compound 102 on U87 Cells In Vitro at 1 uM; 2 uM; 5 uM; and 10 uM.
Viable cells were counted (mean and s.d.; n=3; Coulter particle counter).
(§1) Recent work led to the discovery that treatment with the compound, compound 100, and several homologs inhibit the serine/threonine protein phosphatases PP2A (FIG. 1). Compound 102 inhibits PP2A (IC50=˜0.4 μM) more potently than PP1 (IC50=˜80 μM) (FIG. 2). Associated with their inhibition of PP2A, Compound 100 and homologs inhibit a variety of human cancer cell types growing in cell culture and growing in vivo as xenografts implanted subcutaneously in SCID mice (FIG. 3 and FIG. 4). […] Death of these cancer cells is associated with profound disruption of microtubular structures. Such patterns of disordered microtubules during mitosis have been noted after exposure of cancer cells to spindle toxins include such vincristine, vinblastine, taxol, taxotere, ionizing radiation, and DNA damaging agents including anthracyclines and the platinum based compounds. The morphologic appearance of cells displaying these characteristics has been called the mitotic catastrophe phenotype (Castedo et al 2004).

U87MG xenografts = assay: U87MG s.c. xenografts in SCID mice, compound 102 and TMZ; type: in vivo
Experimental: 5×10^6 U87MG cells were inoculated s.c. into each flank of 20 SCID mice. When the xenografts were 0.5+/−0.1 cm (day 0), 5 animals each received i.p. vehicle alone days 1-12 (50% DMSO/H20); compound 102 alone at 1.5 mg/kg days 1-3, 5-7, & 9-11; TMZ alone at 80 mg/kg days 4, 8, 12; or both drugs at the same doses and schedules. If xenografts reached 1800 mm^3, animals were sacrificed. […] B, Survival curve combining the data from the study shown in FIG. 12A, with a second identical study involving a total of 10 animals with two xenografts each. Disease-free survival was defined as no recurrence of either xenografts. […] As in 12A, except that xenografts of SH-SY5Y cells were implanted in one flank only and animals were treated with one additional cycle of drugs, i.e., compound 102 on days 13-15, TMZ, on day 16, and compound 102 plus TMZ on the same schedules. […] E, Western blots of U87 cells in culture 24 hours after exposure to compound 102 at 2.5 uM, TMZ at 25 uM or DOX at 2 uM, and compound 102 plus TMZ or DOX. F, Western blots of U373 cells 24 hours after exposure to compound 102 at 2.5 uM, doxorubicin at 2 uM, and both drugs. G, Western blots of U373 cells 24 hours after exposure to TMZ at 25 uM, okadaic acid at 2 nM, and both drugs.
To determine the impact of altering DNA-damage defense mechanisms by inhibiting PP2A on the efficacy of cytotoxic chemotherapy, the effects of compound 102 combined with TMZ, a non-specific DNA-methylating drug, routinely used for the palliative treatment of GBM patients (Prados et al, 2008), were studied. SCID mice bearing s.c. xenografts of either the GBM line U87MG or the neuroblastoma line SH-SY5Y were treated with vehicle alone, compound 102 alone, TMZ alone, or both drugs at the same doses and schedules as when given alone.

PP2A [1] = target: T1, PP2A (Homo sapiens, UniProt P67775); assay: PP2A activity in DAOY cells (immunoprecipitated PP2A/Akt-1 complexes, Malachite Green assay); type: cell-based; parameters: PP2A activity from the immunoprecipitated complexes was assayed; endogenous in cells; host or cells: DAOY cells; details: 0.15, 0.25, 0.3 μM, 1 hour
Experimental: Cultured DAOY cells were plated in […] flasks. When the cells were 80% confluent, the media was replaced with media containing either 0.15 μM Compound 102, 0.25 μM Compound 102, 0.3 μM Compound 102, or an equivalent volume of PBS vehicle. After 1 hour, the cells were washed three times in a 0.9% normal saline solution. T-PER solution was added to the cells, and cells were prepared for protein extraction. Lysates from each treatment group containing 300 μg of protein were applied to a spin column (Catch and Release v2.0 Reversible Immunoprecipitation System, Millipore, Billerica, Mass.) for immunoprecipitation of PP2A/Akt-1 kinase protein complexes using polyclonal anti-rabbit Akt-1 antibody (Cell Signaling Technology, Danvers, Mass.). PP2A activity from the immunoprecipitated complexes was assayed using a Malachite Green Phosphatase Assay specific for serine/threonine phosphatase activity (Ser/Thr Phosphatase Assay Kit 1, Millipore, Billerica, Mass.).
Target sequence in this assay (P67775 whole entry): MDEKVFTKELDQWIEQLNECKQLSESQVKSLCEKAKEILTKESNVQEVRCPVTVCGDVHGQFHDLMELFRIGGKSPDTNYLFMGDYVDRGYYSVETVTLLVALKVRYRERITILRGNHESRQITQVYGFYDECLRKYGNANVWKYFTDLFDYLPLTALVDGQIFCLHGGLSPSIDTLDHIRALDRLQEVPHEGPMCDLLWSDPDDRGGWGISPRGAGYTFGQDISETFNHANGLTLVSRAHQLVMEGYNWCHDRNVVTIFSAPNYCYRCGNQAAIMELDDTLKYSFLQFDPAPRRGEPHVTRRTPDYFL
Target sequence in this assay (P30153 2-589 partner limits assumed): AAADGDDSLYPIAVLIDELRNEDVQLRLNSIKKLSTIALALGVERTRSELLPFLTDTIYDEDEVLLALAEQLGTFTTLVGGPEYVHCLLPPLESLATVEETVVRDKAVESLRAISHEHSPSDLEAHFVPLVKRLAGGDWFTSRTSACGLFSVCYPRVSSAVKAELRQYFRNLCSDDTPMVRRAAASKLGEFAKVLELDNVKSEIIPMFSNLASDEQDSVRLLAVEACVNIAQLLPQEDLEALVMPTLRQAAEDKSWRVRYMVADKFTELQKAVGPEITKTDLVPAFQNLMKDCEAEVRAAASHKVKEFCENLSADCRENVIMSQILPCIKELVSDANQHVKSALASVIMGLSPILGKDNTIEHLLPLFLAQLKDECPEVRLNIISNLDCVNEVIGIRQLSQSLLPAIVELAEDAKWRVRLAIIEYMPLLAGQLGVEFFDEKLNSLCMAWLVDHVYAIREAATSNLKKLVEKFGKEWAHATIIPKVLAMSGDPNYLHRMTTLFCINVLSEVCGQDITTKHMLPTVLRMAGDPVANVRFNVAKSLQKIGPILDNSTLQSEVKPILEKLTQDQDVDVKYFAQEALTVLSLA

PP2A [2] = target: T1, PP2A; assay: PP2A activity in U87 xenografts and normal brain after i.p. injection; type: in vivo, SCID mice; parameters: PP2A activity in U87 s.c. xenografts (blue) and in normal brain tissue (yellow) of SCID mice; from tissue; host or cells: U87 s.c. xenografts and normal brain tissue of SCID mice; details: single dose 1.5 mg/kg i.p.
Experimental: PP2A activity in U87 s.c. xenografts (blue) and in normal brain tissue (yellow) of SCID mice at different times after i.p. injection of 1.5 mg/kg compound 102 (one mouse per point; each lysate was measured in triplicate: mean and s.d.)
as §1
Target sequence in this assay (P67775 whole entry): as the sequence (P67775 whole entry) above

U87MG cells = assay: Cell cycle distribution of U87MG cells by FACS; type: cell-based, human; details: 48 hours
Experimental: Cells in unsynchronized logarithmic growth were exposed to vehicle or drug and adherent cells and cells in the media were collected. Harvested cells were fixed with 70% cold ethanol for 20 min at −20 degrees, washed with PBS, and stained with 10 ug/ml of PI and 1 ug/ml RNAse in TBS for 30 minutes and analyzed by FACS. A, Flow cytometry profiles of U87 cells after exposures to DMSO only, compound 102 only, 5 uM; TMZ only, 25 uM; compound 102 with TMZ combination, doxorubicin only, 2.0 uM and compound 102 with doxorubicin combination. B, Flow cytometry profiles of U373 cells. Exposures as in A, and C, Schema of proposed mechanisms of compound 102 enhancement of cancer chemotherapy.
We analyzed cell cycle patterns of U87MG and U373 cells 48 hours after exposure to TMZ or DOX alone and in combination with compound 102.

NB xenografts = assay: Histologic examination of xenografts 24 hours after single i.p. injection; type: in vivo, SCID mice; details: compound 102 1.5 mg/kg, TMZ 80 mg/kg

## CC(C)(C)OC(=O)N1CCN(C(=O)C2C(C(=O)O)[C@H]3CC[C@@H]2O3)CC1 (stereo partly shown) [Compound 102]
U87 cells
  IC50: ~4 µM
U87MG xenografts; compound 102 1.5 mg/kg i.p. days 1-3, 5-7, 9-11, TMZ 80 mg/kg days 4, 8, 12
  U87MG xenograft growth/regression: minimally delayed growth; also recorded: slowed growth
U87MG xenografts; same doses and schedules
  time of sacrifice (xenografts reached 1800 mm^3): 4-5 week
PP2A [1]
  PP2A activity in DAOY cell line: Inhibition
PP2A [2]
  PP2A activity in normal brain tissue: inhibits PP2A activity
  PP2A activity in s.c. U87 MG xenografts: inhibits PP2A activity
U87MG cells; compound 102 5 uM, TMZ 25 uM, doxorubicin 2.0 uM
  G1 phase cells: decreased
U87MG cells; same concentrations
  G2/M phase cells: prominently increased
  S phase cells: modestly increased
NB xenografts
  cells with pyknotic nuclei: 50 % of cells

From patent US9526915B2, “Methods for regulating cell mitosis by inhibiting serine/threonine phosphatase” (priority 2008, dated 2016)
